Source: patent US6649654B1, “Methods for identifying and using IKK inhibitors” (The Regents of the University of California, priority 1999, dated 2003)
Entries after “also recorded” stand apart in the source; their conditions may differ.

Tests used:
JNK1 = target: T1, JNK1 (Homo sapiens, UniProt P45983); experiment: In vitro JNK1 kinase activity; type: biochemical; details: in vitro incubation with up to 60 μM
T1 construct: Endogenous IKK, HA-tagged IKKα, endogenous JNK1, and p38 activities were determined; endogenous in cells
Description: Cell lysates were incubated with anti-IKKα (Pharmingen), anti-HA (12CA5; Pharmingen), anti-JNK1 (333.8; Pharmingen), or anti-p38 (New England Biolabs) for 2 hours. Then, 15 μl protein A-Sepharose (Sigma) were added and the mixture was allowed to incubate for 1 hour. After extensive washing, kinase assays were performed as known in the art (See e.g., DiDonato et al., Nature 388:548-554 [1997]). Endogenous IKK, HA-tagged IKKα, endogenous JNK1, and p38 activities were determined with GST-1κBα(1-54), GST-c-Jun(1-79), and GST-ATF2 as substrates.
Endogenous IKK was immunoprecipitated from TNFα-stimulated HeLa cells and the kinase activity determined in the presence of different concentrations of PGA1 (the results of which are shown in FIG. 2B) or 15dPGJ2 (the results of which are shown in FIG. 2C).

IKKβ(C179A) = target: T2, IKKβ(C179A) (Homo sapiens, UniProt O14920, C179A); experiment: IKKβ(C179A) coexpressed with NIK in HeLa cells, kinase activity; type: cell-based; details: HeLa cells coexpressing NIK, treated 2 hours
T2 sequence (O14920 1-756 C179A): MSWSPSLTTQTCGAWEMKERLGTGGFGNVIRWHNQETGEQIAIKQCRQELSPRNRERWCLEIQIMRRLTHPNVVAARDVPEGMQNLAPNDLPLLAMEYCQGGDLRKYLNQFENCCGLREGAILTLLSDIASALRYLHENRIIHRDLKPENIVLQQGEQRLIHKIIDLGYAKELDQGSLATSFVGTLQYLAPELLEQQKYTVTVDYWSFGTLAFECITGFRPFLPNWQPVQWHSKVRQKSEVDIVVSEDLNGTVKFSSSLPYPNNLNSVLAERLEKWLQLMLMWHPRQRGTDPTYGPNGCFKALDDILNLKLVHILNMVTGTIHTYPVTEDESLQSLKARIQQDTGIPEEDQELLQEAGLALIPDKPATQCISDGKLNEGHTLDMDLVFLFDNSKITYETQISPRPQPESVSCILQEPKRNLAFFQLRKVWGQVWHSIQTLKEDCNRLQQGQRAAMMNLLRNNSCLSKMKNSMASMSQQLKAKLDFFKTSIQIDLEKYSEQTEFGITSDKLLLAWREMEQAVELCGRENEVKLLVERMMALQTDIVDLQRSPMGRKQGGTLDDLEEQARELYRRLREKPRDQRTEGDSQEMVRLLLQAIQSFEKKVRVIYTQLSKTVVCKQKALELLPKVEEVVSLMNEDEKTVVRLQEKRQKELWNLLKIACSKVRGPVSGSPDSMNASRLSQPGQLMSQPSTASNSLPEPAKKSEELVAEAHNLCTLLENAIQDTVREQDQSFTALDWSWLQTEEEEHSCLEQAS
Description: In an experiment to determine whether this cysteine is critical for sensitivity to cyPG, cysteine was replaced with an alanine using site-directed mutagenesis. In these experiments, HeLa cells were transiently transfected with expression vectors for IKKβ(WT) or IKKβ(C179A) with or without a NIK expression vector. After 16 hours, NIK transfected cells were treated for 2 hours with 15dPGJ2. Kinase activity (KA) and expression (IB:HA) were subsequently determined. Thus, wild-type (WT) IKKβ and mutant IKKβ (i.e., IKKβ(C179A)) were coexpressed with NIK in HeLa cells and their sensitivity to 15dPGJ2 examined. While both constructs were equally responsive to NIK, resulting in similar levels of kinase activity, the IKKβ(C179A) mutant was resistant to inhibitor (See, FIG. 6C).

JNK = JNK (Homo sapiens, UniProt P45983); experiment: JNK activation in TPA-stimulated Jurkat cells; type: cell-based; design: endogenous in cells; host or cells: Jurkat; details: 24 μM PGA1, TPA
Description: (§1) Cells used in the experiments described herein were cultured in either RPMI 1640 (Jurkat cells) or DMEM (HeLa and COS cells), supplemented with 10% FBS and antibiotics. Cells were stimulated with either 25 ng/ml TPA, 20 ng/ml recombinant TNFα, or 10 ng/ml interleukin 1β (Sigma). PGA1, 15dPGJ2, T×B2, LTB4, AA and other PGs (Cayman) dissolved in ethanol were used as well, as known in the art (See e.g., Rossi et al., 94:746-750 [1997]). Controls received equal amounts of ethanol. Transfections were performed using Lipofectamine Plus (GIBCO) for HeLa and COS cells and DEAE-dextran (Sigma) for Jurkat cells. Xpress-tagged NIK, Xpress-tagged MEKK1, HA-tagged IKKα, and HA-tagged IKKβ were also used (See e.g., Zandi et al., Science 281:1360-1363 [1998]; and Delhase et al., Science 284:309-313 [1999]). COX2 and cPLA2 expression vectors were obtained from Dr. L. Feng (See also, Hirose et al., J. Am. Soc. Nephrol., 9:408-416 [1998]). PGD synthase was cloned from HT29 colon carcinoma cell line cDNA by PCR and subcloned into a pCDNA3 vector. […]
(§2) Cell lysates were incubated with anti-IKKα (Pharmingen), anti-HA (12CA5; Pharmingen), anti-JNK1 (333.8; Pharmingen), or anti-p38 (New England Biolabs) for 2 hours. […] Endogenous IKK, HA-tagged IKKα, endogenous JNK1, and p38 activities were determined with GST-1κBα(1-54), GST-c-Jun(1-79), and GST-ATF2 as substrates. […]

IKK [1] = experiment: NIK-induced endogenous IKK activity in transfected COS cells; type: cell-based; details: PGA1 added 10 min or 18 h after transfection
Description: as §1
Cell lysates were incubated with anti-IKKα (Pharmingen), anti-HA (12CA5; Pharmingen), anti-JNK1 (333.8; Pharmingen), or anti-p38 (New England Biolabs) for 2 hours. […] Endogenous IKK, HA-tagged IKKα, endogenous JNK1, and p38 activities were determined with GST-1κBα(1-54), GST-c-Jun(1-79), and GST-ATF2 as substrates.

IKK [2] = target: IKK (Homo sapiens, UniProt O14920+O15111); experiment: Endogenous IKK activity (kinase assay) in Jurkat cells stimulated with TNFα or TPA; type: cell-based; design: endogenous in cells
Description: as §1, §2

IKK (Homo sapiens, UniProt O14920+O15111), sequence (O14920 whole entry): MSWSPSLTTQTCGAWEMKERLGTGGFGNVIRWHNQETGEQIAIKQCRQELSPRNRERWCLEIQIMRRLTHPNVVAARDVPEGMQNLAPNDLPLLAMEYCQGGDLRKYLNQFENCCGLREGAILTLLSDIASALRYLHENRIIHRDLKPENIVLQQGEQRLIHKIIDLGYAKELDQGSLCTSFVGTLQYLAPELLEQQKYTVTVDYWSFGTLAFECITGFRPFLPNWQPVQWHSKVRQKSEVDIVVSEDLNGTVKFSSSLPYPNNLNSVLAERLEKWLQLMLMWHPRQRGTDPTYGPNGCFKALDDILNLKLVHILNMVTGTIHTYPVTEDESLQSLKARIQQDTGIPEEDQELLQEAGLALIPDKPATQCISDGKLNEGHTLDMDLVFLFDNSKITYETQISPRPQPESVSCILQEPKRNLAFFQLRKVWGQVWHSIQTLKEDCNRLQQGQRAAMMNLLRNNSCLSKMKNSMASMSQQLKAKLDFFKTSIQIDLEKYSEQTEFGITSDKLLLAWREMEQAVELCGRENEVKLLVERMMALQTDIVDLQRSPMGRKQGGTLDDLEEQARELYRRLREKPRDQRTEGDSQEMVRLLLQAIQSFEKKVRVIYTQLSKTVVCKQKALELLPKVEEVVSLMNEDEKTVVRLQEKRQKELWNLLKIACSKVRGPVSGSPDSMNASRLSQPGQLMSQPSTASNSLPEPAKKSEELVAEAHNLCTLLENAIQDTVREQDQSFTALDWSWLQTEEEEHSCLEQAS
IKK (Homo sapiens, UniProt O14920+O15111), sequence (O15111 whole entry): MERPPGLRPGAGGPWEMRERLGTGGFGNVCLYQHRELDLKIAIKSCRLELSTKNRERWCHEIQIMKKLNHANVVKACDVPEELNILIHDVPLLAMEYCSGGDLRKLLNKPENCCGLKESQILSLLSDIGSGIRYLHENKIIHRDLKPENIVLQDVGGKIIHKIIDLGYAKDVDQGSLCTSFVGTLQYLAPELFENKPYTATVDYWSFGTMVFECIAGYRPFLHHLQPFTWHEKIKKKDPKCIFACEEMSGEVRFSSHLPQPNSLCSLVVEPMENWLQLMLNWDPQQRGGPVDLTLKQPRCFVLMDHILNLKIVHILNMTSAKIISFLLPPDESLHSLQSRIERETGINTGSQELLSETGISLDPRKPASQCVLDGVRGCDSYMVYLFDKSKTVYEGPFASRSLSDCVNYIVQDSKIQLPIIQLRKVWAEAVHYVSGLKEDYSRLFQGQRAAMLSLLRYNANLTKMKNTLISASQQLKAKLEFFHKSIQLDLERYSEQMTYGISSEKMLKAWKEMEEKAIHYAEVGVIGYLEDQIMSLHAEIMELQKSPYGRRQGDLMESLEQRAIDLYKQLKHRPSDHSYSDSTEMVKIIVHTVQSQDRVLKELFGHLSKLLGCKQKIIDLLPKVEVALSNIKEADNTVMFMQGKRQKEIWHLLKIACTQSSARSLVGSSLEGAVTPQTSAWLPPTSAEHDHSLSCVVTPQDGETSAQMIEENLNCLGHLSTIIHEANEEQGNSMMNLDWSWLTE
IKK (Homo sapiens, UniProt O14920+O15111), sequence (Q9Y6K9 whole entry partner): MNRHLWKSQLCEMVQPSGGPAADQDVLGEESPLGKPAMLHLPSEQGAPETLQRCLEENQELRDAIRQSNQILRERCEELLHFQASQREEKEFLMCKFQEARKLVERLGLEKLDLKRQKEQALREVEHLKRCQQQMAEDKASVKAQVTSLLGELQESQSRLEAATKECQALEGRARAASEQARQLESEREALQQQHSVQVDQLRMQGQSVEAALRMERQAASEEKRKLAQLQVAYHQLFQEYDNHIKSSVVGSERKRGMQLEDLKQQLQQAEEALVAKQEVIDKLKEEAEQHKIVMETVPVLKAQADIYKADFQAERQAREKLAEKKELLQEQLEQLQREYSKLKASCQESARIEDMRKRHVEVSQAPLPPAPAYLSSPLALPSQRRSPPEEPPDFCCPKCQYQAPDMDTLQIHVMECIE
T1 sequence (P45983 whole entry): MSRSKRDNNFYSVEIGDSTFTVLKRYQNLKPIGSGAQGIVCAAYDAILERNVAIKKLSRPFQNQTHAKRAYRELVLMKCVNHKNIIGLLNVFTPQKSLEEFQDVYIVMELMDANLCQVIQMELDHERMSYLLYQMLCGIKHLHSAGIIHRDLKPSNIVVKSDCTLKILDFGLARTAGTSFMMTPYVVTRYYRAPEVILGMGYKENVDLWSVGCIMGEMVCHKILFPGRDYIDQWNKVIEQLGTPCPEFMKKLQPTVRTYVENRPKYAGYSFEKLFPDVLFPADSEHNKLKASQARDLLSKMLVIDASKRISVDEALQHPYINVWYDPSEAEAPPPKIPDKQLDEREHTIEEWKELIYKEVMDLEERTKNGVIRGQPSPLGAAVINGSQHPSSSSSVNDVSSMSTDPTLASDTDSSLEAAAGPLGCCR
JNK, sequence (P45983 whole entry): as above

Row | Structure (SMILES) | inhibition of JNK1 activity in vitro (JNK1) | sensitivity of IKKβ(C179A) kinase activity to inhibitor (IKKβ(C179A)) | effect on activation of JNK (JNK) | effect on NIK-induced activation of endogenous IKK activity (IKK [1]) | effect on IKK activity (IKK [2]; 24 μM PGA1 2 hours, TNFα or TPA) | effect on IKK activity after 15 minute exposure (IKK [2]; 15-min exposure, TPA 15 minutes)
1 | CCCCC/C=C/C=C1/C(=O)C=C[C@@H]1C/C=C\CCCC(=O)O [15dPGJ2, 15-deoxy-Δ^12-14-PGJ2] | No significant inhibition | resistant |  |  |  | 
2 | CCCCC[C@H](O)/C=C/[C@H]1C=CC(=O)C1CCCCCCC(=O)O (stereo partly drawn) [PGA1, prostaglandin A1] |  |  | did not inhibit | inhibited; also recorded: prevents | inhibit IKK activity; also recorded: inhibited | partially inhibit
